PubChem BioAssay AID1963966 (Molecular Pharmacology Branch, DTP, NCI, 2024)

Tested on: 935938-334-R-J1-PDC spheroids with HUVEC/MSC, viability
Assay: Anticancer human tumor 935938-334-R-J1-PDC patient-derived small intestine adenocarcinoma cell line growth inhibition [PI3K]
Conditions: for IC50: curve of first compound; for viability, T/C: stronger effect = lower value
How it was run: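 Tumor cells grown as multi-cell spheroids with HUVEC endothelial cells and MSC fibroblast-like stroma were treated with targeted agents combined with inavolisib, alpelisib, duvelisib or copanlisib. Doses fell in half-log steps from near clinical Cmax, else from 10 microM. Viability was measured.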
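Further: compound exposure lasted seven days before viability was read.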
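Wherever viability, T/C is given: percent of vehicle DMSO treated spheroid viability so 100% = untreated.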

`CNC(=O)c1ccc(N2C(=S)N(c3ccc(C#N)c(C(F)(F)F)c3)C(=O)C2(C)C)cc1F` + COc1c(OCCCN2CCOCC2)ccc2c3n(c(=NC(=O)c4cnc(N)nc4)nc12)CCN3 was tested, and the IC50 (second compound 0.00316 µM) was > 10000 nM, the IC50 (second compound 0.01 µM) was > 10000 nM and the IC50 (second compound 0.0316 µM) was > 10000 nM. For the same compound, the IC50 (second compound 0.1 µM) was 69.4 nM, the IC50 (second compound 0.316 µM) was < 31.6 nM and the IC50 (second compound 1 µM) was < 31.6 nM. It also gave a viability, T/C (second compound 0.00316 µM, first compound 0.0316 µM) of 89.8%, a viability, T/C (second compound 0.00316 µM, first compound 0.1 µM) of 76.3% and a viability, T/C (second compound 0.00316 µM, first compound 0.316 µM) of 74.8%. For the same compound, the viability, T/C (second compound 0.00316 µM, first compound 1 µM) was 66.8%, the viability, T/C (second compound 0.00316 µM, first compound 3.16 µM) was 103% and the viability, T/C (second compound 0.00316 µM, first compound 10 µM) was 93.4%. It also gave a viability, T/C (second compound 0.01 µM, first compound 0.0316 µM) of 87.6%, a viability, T/C (second compound 0.01 µM, first compound 0.1 µM) of 96.8% and a viability, T/C (second compound 0.01 µM, first compound 0.316 µM) of 102%. It also gave a viability, T/C (second compound 0.01 µM, first compound 1 µM) of 85.8%, a viability, T/C (second compound 0.01 µM, first compound 3.16 µM) of 104% and a viability, T/C (second compound 0.01 µM, first compound 10 µM) of 92.7%. It also gave a viability, T/C (second compound 0.0316 µM, first compound 0.0316 µM) of 84.5%, a viability, T/C (second compound 0.0316 µM, first compound 0.1 µM) of 85.3% and a viability, T/C (second compound 0.0316 µM, first compound 0.316 µM) of 82.1%. The viability, T/C (second compound 0.0316 µM, first compound 1 µM) was 81%, the viability, T/C (second compound 0.0316 µM, first compound 3.16 µM) was 76.6% and the viability, T/C (second compound 0.0316 µM, first compound 10 µM) was 66.6%. The viability, T/C (second compound 0.1 µM, first compound 0.0316 µM) was 62.9%, the viability, T/C (second compound 0.1 µM, first compound 0.1 µM) was 42.6% and the viability, T/C (second compound 0.1 µM, first compound 0.316 µM) was 49.1%. For the same compound, the viability, T/C (second compound 0.1 µM, first compound 1 µM) was 44.5%, the viability, T/C (second compound 0.1 µM, first compound 3.16 µM) was 42.9% and the viability, T/C (second compound 0.1 µM, first compound 10 µM) was 40.2%. It also gave a viability, T/C (second compound 0.316 µM, first compound 0.0316 µM) of 43.3%, a viability, T/C (second compound 0.316 µM, first compound 0.1 µM) of 29.4% and a viability, T/C (second compound 0.316 µM, first compound 0.316 µM) of 31.3%. For the same compound, the viability, T/C (second compound 0.316 µM, first compound 1 µM) was 32.4%, the viability, T/C (second compound 0.316 µM, first compound 3.16 µM) was 36.7% and the viability, T/C (second compound 0.316 µM, first compound 10 µM) was 24.4%. The viability, T/C (second compound 1 µM, first compound 0.0316 µM) was 34.9%, the viability, T/C (second compound 1 µM, first compound 0.1 µM) was 30.6% and the viability, T/C (second compound 1 µM, first compound 0.316 µM) was 38.3%. The viability, T/C (second compound 1 µM, first compound 1 µM) was 34.2%, the viability, T/C (second compound 1 µM, first compound 3.16 µM) was 29.3% and the viability, T/C (second compound 1 µM, first compound 10 µM) was 24.8%.

For `Cn1cnc2c(F)c(Nc3ccc(Br)cc3Cl)c(C(=O)NOCCO)cc21` + COc1c(OCCCN2CCOCC2)ccc2c3n(c(=NC(=O)c4cnc(N)nc4)nc12)CCN3, the IC50 (second compound 0.00316 µM) was 60.9 nM, the IC50 (second compound 0.01 µM) was 56.6 nM and the IC50 (second compound 0.0316 µM) was 40.3 nM. For the same compound, the IC50 (second compound 0.1 µM) was < 9.49 nM, the IC50 (second compound 0.316 µM) was < 9.49 nM and the IC50 (second compound 1 µM) was < 9.49 nM. It also gave a viability, T/C (second compound 0.00316 µM, first compound 0.00949 µM) of 70.9%, a viability, T/C (second compound 0.00316 µM, first compound 0.03 µM) of 55.8% and a viability, T/C (second compound 0.00316 µM, first compound 0.0949 µM) of 49.6%. For the same compound, the viability, T/C (second compound 0.00316 µM, first compound 0.3 µM) was 30.8%, the viability, T/C (second compound 0.00316 µM, first compound 0.949 µM) was 30.9% and the viability, T/C (second compound 0.00316 µM, first compound 3 µM) was 23.4%. The viability, T/C (second compound 0.01 µM, first compound 0.00949 µM) was 76.8%, the viability, T/C (second compound 0.01 µM, first compound 0.03 µM) was 63.6% and the viability, T/C (second compound 0.01 µM, first compound 0.0949 µM) was 36.4%. It also gave a viability, T/C (second compound 0.01 µM, first compound 0.3 µM) of 32.6%, a viability, T/C (second compound 0.01 µM, first compound 0.949 µM) of 22.6% and a viability, T/C (second compound 0.01 µM, first compound 3 µM) of 18.4%. The viability, T/C (second compound 0.0316 µM, first compound 0.00949 µM) was 64.5%, the viability, T/C (second compound 0.0316 µM, first compound 0.03 µM) was 51.7% and the viability, T/C (second compound 0.0316 µM, first compound 0.0949 µM) was 42.4%. It also gave a viability, T/C (second compound 0.0316 µM, first compound 0.3 µM) of 27%, a viability, T/C (second compound 0.0316 µM, first compound 0.949 µM) of 22.2% and a viability, T/C (second compound 0.0316 µM, first compound 3 µM) of 20.3%. It also gave a viability, T/C (second compound 0.1 µM, first compound 0.00949 µM) of 31.4%, a viability, T/C (second compound 0.1 µM, first compound 0.03 µM) of 29.9% and a viability, T/C (second compound 0.1 µM, first compound 0.0949 µM) of 20.9%. The viability, T/C (second compound 0.1 µM, first compound 0.3 µM) was 16.2%, the viability, T/C (second compound 0.1 µM, first compound 0.949 µM) was 17.3% and the viability, T/C (second compound 0.1 µM, first compound 3 µM) was 14.1%. For the same compound, the viability, T/C (second compound 0.316 µM, first compound 0.00949 µM) was 26.8%, the viability, T/C (second compound 0.316 µM, first compound 0.03 µM) was 21.4% and the viability, T/C (second compound 0.316 µM, first compound 0.0949 µM) was 19.4%. For the same compound, the viability, T/C (second compound 0.316 µM, first compound 0.3 µM) was 17.7%, the viability, T/C (second compound 0.316 µM, first compound 0.949 µM) was 18.9% and the viability, T/C (second compound 0.316 µM, first compound 3 µM) was 15%. The viability, T/C (second compound 1 µM, first compound 0.00949 µM) was 29%, the viability, T/C (second compound 1 µM, first compound 0.03 µM) was 24.4% and the viability, T/C (second compound 1 µM, first compound 0.0949 µM) was 21.4%. It also gave a viability, T/C (second compound 1 µM, first compound 0.3 µM) of 21.3%, a viability, T/C (second compound 1 µM, first compound 0.949 µM) of 17.9% and a viability, T/C (second compound 1 µM, first compound 3 µM) of 14%.
